Measurements taken from ChEMBL document CHEMBL3102853, “Carbonic anhydrase inhibitors. Synthesis, and molecular structure of novel series N-substituted N'-(2-arylmethylthio-4-chloro-5-methylbenzenesulfonyl)guanidines and their inhibition of human cytosolic isozymes I and II and the transmembrane tumor-associated isozymes IX and XII” (Eur J Med Chem, 2014).
pKi: −log10 of the molar value. Calls of active or inactive are those of the source. The calls are words filed in the database; no cut-off is given here.

Experiments:
Carbonic anhydrase 9 = Carbonic anhydrase 9 (Homo sapiens, UniProt Q16790)
[1] = Cytotoxicity against human Hs 578T cells at 10 uM; assay type: functional; details: read-out: GI
MDA-MB-468 = assay: Cytotoxicity against human MDA-MB-468 cells at 10 uM; assay type: functional; details: read-out: GI
MCF7 = assay: Cytotoxicity against human MCF7 cells at 10 uM; assay type: functional; details: read-out: GI
T47D = assay: Cytotoxicity against human T47D cells at 10 uM; assay type: functional; details: read-out: GI
DU-145 = assay: Cytotoxicity against human DU145 cells at 10 uM; assay type: functional
PC-3 = assay: Cytotoxicity against human PC3 cells at 10 uM; assay type: functional; details: read-out: GI
A498 = assay: Cytotoxicity against human A498 cells at 10 uM; assay type: functional; details: read-out: GI
NCI/ADR-RES = assay: Cytotoxicity against human NCI-ADR-RES cells at 10 uM; assay type: functional
LOX IMVI = assay: Cytotoxicity against human LOXIMVI cells at 10 uM; assay type: functional; details: read-out: GI
OVCAR-3 = assay: Cytotoxicity against human OVCAR3 cells at 10 uM; assay type: functional
UACC-62 = assay: Cytotoxicity against human UACC62 cells at 10 uM; assay type: functional; details: read-out: GI
SK-MEL-2 = assay: Cytotoxicity against human SK-MEL-2 cells at 10 uM; assay type: functional; details: read-out: GI
SF-268 = assay: Cytotoxicity against human SF268 cells at 10 uM; assay type: functional; details: read-out: GI
SW-620 = assay: Cytotoxicity against human SW620 cells at 10 uM; assay type: functional
SNB-75 = assay: Cytotoxicity against human SNB75 cells at 10 uM; assay type: functional; details: read-out: GI
KM12 = assay: Cytotoxicity against human KM12 cells at 10 uM; assay type: functional; details: read-out: GI
HT-29 = assay: Cytotoxicity against human HT-29 cells at 10 uM; assay type: functional; details: read-out: GI
HOP-92 = assay: Cytotoxicity against human HOP92 cells at 10 uM; assay type: functional; details: read-out: GI
NCI-H460 = assay: Cytotoxicity against human NCI-H460 cells at 10 uM; assay type: functional; details: read-out: GI
A549 = assay: Cytotoxicity against human A549 cells at 10 uM; assay type: functional; details: read-out: GI
SR = assay: Cytotoxicity against human SR cells at 10 uM; assay type: functional; details: read-out: GI
MOLT-4 = assay: Cytotoxicity against human MOLT4 cells at 10 uM; assay type: functional; details: read-out: GI
RPMI-8226 = assay: Cytotoxicity against human RPMI8226 cells at 10 uM; assay type: functional; details: read-out: GI
K562 = assay: Cytotoxicity against human K562 cells at 10 uM; assay type: functional; details: read-out: GI
HL-60(TB) = assay: Cytotoxicity against human HL-60(TB) cells at 10 uM; assay type: functional; details: read-out: GI

| Compound | pKi (Carbonic anhydrase 9) | inhibition of growth at 10 µM [1] | inhibition of growth at 10 µM (MDA-MB-468) | inhibition of growth at 10 µM (MCF7) | inhibition of growth at 10 µM (T47D) | inhibition of growth at 10 µM (PC-3) | inhibition of growth at 10 µM (A498) | growth inhibition (GI) (NCI/ADR-RES) | inhibition of growth at 10 µM (LOX IMVI) | inhibition of growth at 10 µM (UACC-62) | inhibition of growth at 10 µM (SK-MEL-2) | inhibition of growth at 10 µM (SF-268) | inhibition of growth at 10 µM (SNB-75) | inhibition of growth at 10 µM (KM12) | inhibition of growth at 10 µM (HT-29) | inhibition of growth at 10 µM (HOP-92) | inhibition of growth at 10 µM (NCI-H460) | inhibition of growth at 10 µM (A549) | inhibition of growth at 10 µM (SR) | inhibition of growth at 10 µM (MOLT-4) | also measured |
| --- | --- | --- | --- | --- | --- | --- | --- | --- | --- | --- | --- | --- | --- | --- | --- | --- | --- | --- | --- | --- | --- |
| Cc1cc(S(=O)(=O)NC(=N)NCc2ccc(S(N)(=O)=O)cc2)c(SCc2cccc(C(F)(F)F)c2)cc1Cl | 7.77 |  |  |  |  |  |  |  |  |  |  |  |  |  |  |  |  |  |  |  |  |
| Cc1cc(S(=O)(=O)NC(=N)Nc2nnc(S(N)(=O)=O)s2)c(SCc2ccc(C(F)(F)F)cc2)cc1Cl | 7.99 |  |  |  |  |  |  |  |  |  |  |  |  |  |  |  |  |  |  |  |  |
| Cc1cc(S(=O)(=O)NC(=N)Nc2cccc(S(N)(=O)=O)c2)c(SCc2ccccc2)cc1Cl |  | 17% | 32% | 21% | 13% | 45% | 16% | inactive | 15% | 30% | 14% | 12% | 35% | 5% | 8% | 46% | 3% | 16% | 15% | 34% | growth inhibition (GI) (DU-145): inactive; growth inhibition (GI) (OVCAR-3): inactive; growth inhibition (GI) (SW-620): inactive; inhibition of growth at 10 µM (RPMI-8226): 23%; inhibition of growth at 10 µM (K562): 22%; inhibition of growth at 10 µM (HL-60(TB)): 16% |
| Cc1cc(S(=O)(=O)NC(=N)NCc2ccc(S(N)(=O)=O)cc2)c(SCc2cc3c(cc2Cl)OCO3)cc1Cl |  | 29% | 62% | 60% | 48% | 54% | 10% | inactive | 28% | 56% | 38% | 28% | 42% | 38% | 15% | 57% | 20% | 30% | 50% | 50% | inhibition of growth at 10 µM (DU-145; read-out: GI): 2%; inhibition of growth at 10 µM (OVCAR-3; read-out: GI): 41%; inhibition of growth at 10 µM (SW-620; read-out: GI): 8%; inhibition of growth at 10 µM (RPMI-8226): 57%; inhibition of growth at 10 µM (K562): 57%; inhibition of growth at 10 µM (HL-60(TB)): 58% |
